According to paper PMC8152350, “High cytotoxicity of betulin towards fish and murine fibroblasts: Is betulin safe for nonneoplastic cells?” (BMC Veterinary Research, 2021):
Several values for one entry are separate records, joined by “and”; a condition that tells them apart may be missing. Equal values may be shown once.

Columns and labels:
[1] = tested on: murine Balb/3T3 fibroblasts; design: method as in PMID 16112835; conditions: Balb/3T3, MTT assay; cited from earlier work
BF-2 cells = assay: MTT assay (mitochondrial activity), fish fibroblasts; format: cell-based, bluegill
Description: BF-2 (ATCC CCL-91) bluegill caudal trunk fibroblasts were grown in minimum essential medium (Eagle, EBSS) supplemented with 1 % nonessential amino acids (NEAAs), 10 % foetal bovine serum and 1 % antibiotic-antimycotic solution at 23 °C in a humidified atmosphere with 5 % CO2.
All experiments were repeated three times.

NIH/3T3 cells = assay: MTT assay (mitochondrial activity), murine fibroblasts
Description: NIH/3T3 (ATCC CRL-1658) mouse embryonic fibroblasts were grown in Dulbecco’s modified Eagle’s medium (DMEM) supplemented with 2 mM glutamine, 10 % foetal bovine serum and a 1 % antibiotic-antimycotic solution at 37 °C in a humidified atmosphere with 5 % CO2.
NIH/3T3 and BF-2 cells were seeded in 96-well plates at a density of 1 × 10^4 or 2 × 10^4 cells per well, respectively. After 24 h of incubation at an appropriate temperature, cells were exposed to betulin at the concentrations mentioned above for 24, 48 and 72 h. Control (untreated) cells served as the negative control and a reference point. Triton X-100 treated cells served as the positive internal control in MTT, NRU and LDH assays. Due to the specific character of SRB assay, there was no positive control in this test. After 24, 48 and 72 h of treatment, the four different cytotoxicity assays were performed. All experiments were repeated three times.
The MTT assay is used to estimate mitochondrial damage, since it determines the activity of mitochondrial enzymes. These enzymes reduce the water-soluble tetrazolium dye MTT to insoluble purple formazan, which accumulates inside viable cells.
The MTT assay was conducted using the protocol described by Mosmann, with some modifications described in our previous article.
The MTT assay was used to determine the cytotoxicity of both betulin and the vehicle (DMSO).
All experiments were repeated three times. […] Statistical analyses were performed using GraphPad Prism software (GraphPad Software, USA). Data were subjected to one-way analysis of variance (ANOVA). Dunnett’s posttest was used to determine differences between control and betulin-exposed cells at the same time points. Differences between the two cell lines at the same time points were determined using Student’s t-test. The 50 % cytotoxic concentrations (CC50, defined as the concentration of the compound that reduced cell viability by 50 %) were calculated using the Quest Graph™ ED50 Calculator (AAT Bioquest, Inc.).

[2] = tested on: GSF3.2 goat skin fibroblasts; design: method as in earlier work; conditions: GSF3.2, trypan blue; cited from earlier work

Structure (SMILES): C[S+](C)[O-] [DMSO, Dimethyl sulfoxide]
- IC50 of DMSO [1]: 2.75%
- CC50 DMSO (MTT) 24 h (BF-2 cells; BF-2, 24 h, mean ± SD, n = 3): 5.031 ± 0.423%
- CC50 DMSO (MTT) 48 h (BF-2 cells; BF-2, 48 h, mean ± SD, n = 3): 4.434 ± 0.717%
- CC50 DMSO (MTT) 72 h (BF-2 cells; BF-2, 72 h, mean ± SD, n = 3): 4.794% and 4.794 ± 0.337%
- maximum tolerable DMSO concentration (BF-2 cells; BF-2, concentration at which viability exceeded 90 % throughout the experiment): 1.25%
- DMSO concentration with absence of any measurable activity of mitochondria (BF-2 cells; fish fibroblasts, MTT): 20%
- CC50 DMSO (MTT) 24 h (NIH/3T3 cells; NIH/3T3, 24 h, mean ± SD, n = 3): 2.989 ± 0.159%
- CC50 DMSO (MTT) 48 h (NIH/3T3 cells; NIH/3T3, 48 h, mean ± SD, n = 3): 2.374 ± 0.395%
- CC50 DMSO (MTT) 72 h (NIH/3T3 cells; NIH/3T3, 72 h, mean ± SD, n = 3): 1.635% and 1.635 ± 0.423%
- maximum tolerable DMSO concentration (NIH/3T3 cells; NIH/3T3, concentration at which viability exceeded 90 % throughout the experiment): 0.625%
- DMSO concentration with absence of any measurable activity of mitochondria (NIH/3T3 cells; murine fibroblasts, MTT): 10%
- DMSO concentrations giving significant increase in the number of live cells [2]: less than 0.1%
